Assay results taken from patent publication US20030087881A1, “Irreversible inhibitors of tyrosine kinases” (priority 1997, published 2003).

Experiments:
[1] = molecular target: Human EGF receptor tyrosine kinase (Homo sapiens, UniProt P00533); conditions: read-out: IC50 (nM) EGFr (isolated enzyme assay); isolated enzyme from A431 cells; 10 μM ATP
Experimental: Human EGF receptor tyrosine kinase was isolated from A431 human epidermoid carcinoma cells by the following method. Cells were grown in roller bottles in dMEM/F12 media (Gibco/BRL) containing 10% fetal calf serum. Approximately 10^9 cells were lysed in 2 volumes of buffer containing 20mM N-[2-hydroxyethyl]piperazine-N′-[2-ethane sulfonic acid](Hepes), pH 7.4, 5 mM ethylene glycol-bis(β-aminoethyl ether) N,N,N′,N′-tetraacetic acid (EGTA), 1% Triton X-100, 10% glycerol, 0.1 mM sodium orthovanadate, 5 mM sodium fluoride, 4 mM pyrophosphate, 4 mM benzamide, 1 mM dithiothreitol (DTT), 80 μg/mL aprotinin, 40 μg/mL leupeptin, and 1 mM phenylmethyl sulfonyl fluoride (PMSF). After centrifugation at 25,000×g for 10 minutes, the supernatant was applied to a fast Q sepharose column (Pharmacia Biotech., Inc., Piscataway, N.J.) and eluted with a linear gradient from 0.1 M NaCl to 0.4 M NaCl in 50 mM Hepes, 10% glycerol, pH 7.4. Enzyme active fractions were pooled, divided into aliquots, and stored at −100° C.
Enzyme assays for IC50determinations were performed in 96-well filter plates (Millipore MADVN6550, Millipore, Bedford, Mass.). […] The wells are then washed 5 times with 0.2 mL of 10% TCA and ^32P incorporation determined with a Wallac beta plate counter (Wallac, Inc., Gaithersburg, Pa.).

[2] = test system: A431 human epidermoid carcinoma cells; conditions: 2 μM compound for 1 or 2 hours, washed free, EGF stimulation
Experimental: (§1) Extracts were made by lysing the monolayers in 0.2 mL of boiling Laemlli buffer (2% sodium dodecyl sulfate, 5% beta-mercaptoethanol, 10% glycerol and 50 mM tris[hydroxymethyl]aminomethane (Tris), pH 6.8), and the lysates were heated to 100° C. for 5 minutes. Proteins in the lysate were separated by polyacrylamide gel electrophoresis and electrophoretically transferred to nitrocellulose. The membrane was washed once in 10 mM Tris, pH 7.2, 150 mM NaCl, 0.01% Azide (TNA), and blocked overnight in TNA containing 5% bovine serum albumin and 1% ovalbumin. The membrane was blotted for 2 hours with antiphosphotyrosine antibody (UBI, 1 μg/mL in blocking buffer) and then washed twice in TNA, once in TNA containing 0.05% Tween-20 detergent and 0.05% nonidet P-40 detergent and twice in TNA. […] Band intensities were determined with a Molecular Dynamics laser densitometer.

[3] = test system: A431 human epidermoid carcinoma cells; test: cells; conditions: A-431, read-out: IC50 (nM) A431 Cell Autophosphorylation Assay
Experimental: as §1
Duplicate sets of cells were treated with a range of concentrations of the designated compound to be tested as an inhibitor for 15 minutes. The cells were then stimulated with 100 ng/mL of EGF for 5 minutes and extracts made as described under the Western Blotting Procedure.

Chain of Human EGF receptor tyrosine kinase (P00533 25-1210): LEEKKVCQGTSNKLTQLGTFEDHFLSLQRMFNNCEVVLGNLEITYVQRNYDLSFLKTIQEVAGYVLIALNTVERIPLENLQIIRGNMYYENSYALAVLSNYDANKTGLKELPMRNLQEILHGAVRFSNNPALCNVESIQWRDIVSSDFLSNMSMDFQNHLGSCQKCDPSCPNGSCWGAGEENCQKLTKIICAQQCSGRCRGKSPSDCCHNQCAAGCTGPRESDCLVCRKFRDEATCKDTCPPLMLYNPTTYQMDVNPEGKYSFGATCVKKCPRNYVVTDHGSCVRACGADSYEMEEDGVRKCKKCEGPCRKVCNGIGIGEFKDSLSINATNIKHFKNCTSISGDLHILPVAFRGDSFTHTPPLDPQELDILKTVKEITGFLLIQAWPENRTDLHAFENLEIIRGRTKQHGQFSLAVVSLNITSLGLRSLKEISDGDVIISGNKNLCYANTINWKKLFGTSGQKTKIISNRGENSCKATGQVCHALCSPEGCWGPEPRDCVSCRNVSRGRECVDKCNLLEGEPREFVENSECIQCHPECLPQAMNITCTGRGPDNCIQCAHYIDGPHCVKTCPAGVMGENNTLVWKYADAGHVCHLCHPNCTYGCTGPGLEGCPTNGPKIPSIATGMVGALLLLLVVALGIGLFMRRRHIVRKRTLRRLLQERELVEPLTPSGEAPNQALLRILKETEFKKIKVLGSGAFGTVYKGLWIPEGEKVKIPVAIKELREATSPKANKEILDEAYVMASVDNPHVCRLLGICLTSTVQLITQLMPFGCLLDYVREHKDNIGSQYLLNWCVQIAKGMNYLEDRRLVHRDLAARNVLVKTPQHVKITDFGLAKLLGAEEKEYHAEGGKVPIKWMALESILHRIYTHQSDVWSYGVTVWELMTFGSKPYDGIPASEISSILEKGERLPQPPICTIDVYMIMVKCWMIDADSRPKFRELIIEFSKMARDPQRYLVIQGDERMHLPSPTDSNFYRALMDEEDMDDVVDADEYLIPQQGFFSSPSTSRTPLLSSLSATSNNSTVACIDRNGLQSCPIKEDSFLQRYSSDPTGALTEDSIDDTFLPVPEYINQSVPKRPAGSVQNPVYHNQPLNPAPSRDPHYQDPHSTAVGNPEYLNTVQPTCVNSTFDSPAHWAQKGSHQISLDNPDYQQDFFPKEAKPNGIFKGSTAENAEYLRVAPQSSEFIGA

**Q.** What does the source list for `C=CC(=O)Nc1ccc2ncnc(N3CCc4ccc(Br)cc43)c2c1` [Example 1, N-[4-(6-Bromo-2,3-dihydroindol-1-yl)quinazolin-6-yl]acrylamide]?
**A.** IC50 [1]: 0.4 nM; Irreversibility Test [2]: yes, irreversible; melting point: 214 to 216 °C; IC50 [3]: 9.9 nM
